Test results taken from the supplement of paper PMC10307832.

What was measured:
Assay in all cases: relative viability (nuclei count vs DMSO), 5 days (fraction); higher = more cells survive
[1] = compound: CC(C)=CC[C@@H](O)C1=CC(=O)c2c(O)ccc(O)c2C1=O [Shikonin] + O=C(c1cc(Cc2n[nH]c(=O)c3ccccc23)ccc1F)N1CCN(C(=O)C2CC2)CC1 [Olaparib] (partner 8 µM)
Method in brief: (§1)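 Each reported value is a median over duplicate plates. It expresses relative viability: treated-well nuclei count divided by vehicle-well nuclei count. Lung cancer cell lines in 1536-well plates were dosed by pin tool a day after seeding, alone with one drug or with a fixed anchor-drug dose plus five library-drug doses (not always all listed) in √10 steps, and nuclei were counted after 5 days.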

[2] = compound: CC(C)=CC[C@@H](O)C1=CC(=O)c2c(O)ccc(O)c2C1=O [Shikonin] + Cc1nc(NC(=O)N2CCC[C@H]2C(N)=O)sc1-c1ccnc(C(C)(C)C(F)(F)F)c1 [Alpelisib] (partner 2 µM)
Method in brief: as §1

[3] = compound: CC(C)N(CCCNC(=O)Nc1ccc(C(C)(C)C)cc1)C[C@H]1O[C@@H](n2ccc3c(N)ncnc32)[C@H](O)[C@@H]1O + C[C@]1(O)C[C@@H](c2nc(-c3ccc4ccc(-c5ccccc5)nc4c3)c3c(N)nccn32)C1 [Linsitinib] (partner 1 µM)
Method in brief: as §1

[4] = compound: CC(C)N(CCCNC(=O)Nc1ccc(C(C)(C)C)cc1)C[C@H]1O[C@@H](n2ccc3c(N)ncnc32)[C@H](O)[C@@H]1O + CC(C)C[C@H](NC(=O)[C@H](Cc1ccccc1)NC(=O)c1cnccn1)B(O)O [Bortezomib] (partner 0.002 µM)
Method in brief: as §1

Cell Line	relative viability ([1]; first compound 0.01 µM)	relative viability ([1]; first compound 0.1 µM)	relative viability ([1]; first compound 0.3162 µM)	relative viability ([1]; first compound 1 µM)	relative viability ([2]; first compound 0.01 µM)	relative viability ([2]; first compound 0.1 µM)	relative viability ([2]; first compound 0.3162 µM)	relative viability ([2]; first compound 1 µM)	relative viability ([3]; first compound 0.08 µM)	relative viability ([3]; first compound 0.253 µM)	relative viability ([3]; first compound 0.8 µM)	relative viability ([3]; first compound 2.53 µM)	relative viability ([3]; first compound 8 µM)	relative viability ([4]; first compound 0.08 µM)	relative viability ([4]; first compound 0.253 µM)	relative viability ([4]; first compound 0.8 µM)	relative viability ([4]; first compound 2.53 µM)	relative viability ([4]; first compound 8 µM)
NCI-H1975	0.815	0.836	0.955	0.715	0.676	0.712	0.702	0.538	0.842	0.902	0.744	0.836	0.878	0.34	0.352	0.149	0.36	0.341
Calu-6	0.6	0.695	0.556	0.356	0.921	1.23	0.88	0.934	1	0.933	0.871	0.988	0.858	1.02	0.999	1.06	1	1.01
NCI-H2009	0.774	0.691	0.624	0.497	1.31	1.24	1.22	0.802	1.18	1.21	1.18	1.13	0.958	1.05	0.817	0.883	1.08	0.955
SW 1573	0.661	0.557	0.321	0.0736	0.816	0.888	0.801	0.657	0.603	0.872	0.848	0.976	0.825	1.13	1.07	1.06	1.12	0.864
NCI-H2347	0.55	0.619	0.451	0.551	0.992	0.99	0.962	1.03	1	0.95	0.868	1.02	0.97	1.14	0.871	0.534	0.924	1
HCC-366	0.423	0.428	0.33	0.404	0.329	0.347	0.423	0.379	0.597	0.581	0.563	0.547	0.513	0.996	0.999	0.948	1.05	1.04
EMC-BAC-2	0.484	0.562	0.486	0.427	0.77	0.803	0.78	0.747	0.764	0.835	0.794	0.806	0.804	1	1.12	0.948	0.994	0.904
NCI-H3122	0.655	0.631	0.621	0.679	0.752	0.823	0.844	0.79	1.03	0.989	0.919	1.01	0.938	1.02	0.994	1.04	1.03	0.978
EPLC-272H	0.553	0.63	0.57	0.586	0.964	1.06	0.946	0.962	1.12	1.09	1.05	1.03	1.05	0.871	0.819	0.397	0.923	0.942
EBC-1	0.764	0.698	0.758	0.602	0.829	0.809	0.85	0.843	0.656	0.74	0.598	0.885	0.727	0.508	0.549	0.486	0.466	0.473
NCI-H1915	0.254	0.268	0.257	0.245	1.09	1.12	1.13	1.04	1.13	1.15	1.08	1.06	1.03	0.911	0.972	0.622	0.894	0.935
NCI-H650	0.373	0.406	0.399	0.345	1.3		1.13	1.08	0.757	0.732	1.04	0.791	0.704	0.785	0.598	0.773	0.682	0.796
NCI-H441	0.647	0.637	0.626	0.531	1.14	0.874	0.508	0.729	0.565	0.557	0.602	0.611	0.636		0.488	0.144	0.875	0.819
NCI-H1299	0.969	0.986	0.976	0.832	1.11	1.06	1.04	1.07	0.876	1.02	0.97	0.918	0.942	1.03	0.987	0.966	1.04	1.04
NCI-H23	0.36	0.248	0.317	0.313	0.76	0.65	0.804	0.659	0.57		0.556	0.577	0.592	0.837		0.523	0.94	1.17
IA-LM	0.993	0.891	0.893	0.885	0.862	0.667	0.637	0.69	0.318	0.559	0.413	0.443	0.432	0.81	0.693	0.752	0.689	0.712
NCI-H661	0.847	0.879	0.73	0.646	0.676	0.718	0.893	0.792	0.473	0.553	0.585	0.567	0.57	0.63	0.753	0.625	0.747	0.719
NCI-H2087	0.696	0.544	0.592	0.551	1.15	0.967	1.12	1.04	1.06	1.14	0.998	1.18	0.965	0.861	0.841	0.25	0.99	0.857

Cell Line	relative viability ([1]; first compound 0.01 µM)	relative viability ([1]; first compound 0.1 µM)	relative viability ([1]; first compound 0.3162 µM)	relative viability ([1]; first compound 1 µM)	relative viability ([2]; first compound 0.01 µM)	relative viability ([2]; first compound 0.1 µM)	relative viability ([2]; first compound 0.3162 µM)	relative viability ([2]; first compound 1 µM)	relative viability ([3]; first compound 0.08 µM)	relative viability ([3]; first compound 0.253 µM)	relative viability ([3]; first compound 0.8 µM)	relative viability ([3]; first compound 2.53 µM)	relative viability ([3]; first compound 8 µM)	relative viability ([4]; first compound 0.08 µM)	relative viability ([4]; first compound 0.253 µM)	relative viability ([4]; first compound 0.8 µM)	relative viability ([4]; first compound 2.53 µM)	relative viability ([4]; first compound 8 µM)
NCI-H1993	0.92	0.943	1.12	1.32		0.662	0.661	0.699	0.806	0.761	0.738	0.752	0.654	0.96	0.912	0.915	1.13	1.16
PC-14	0.282	0.235	0.191	0.121	0.933	1.01	1.07	1.07	0.962	0.969	0.979	0.908	0.857	0.83	0.852	0.859	1	0.743
NCI-H460	0.584	0.615	0.515	0.39	0.522	0.841	0.618	0.569	0.722	0.775	0.627	0.66	0.678	0.967	1.3	1.2	1.15	1.13
LOU-NH91	0.926	0.937	0.984	0.896	0.703	0.73	0.839	0.727	0.944	0.873		0.998	0.918	0.442	0.449		0.421	0.608
NCI-H322M	0.806	0.757	0.671	0.88	0.73	0.77	0.856	0.857	0.863	0.81	0.877	0.861	0.894	1.11	1.13	1.12	1.39	1.38
NCI-H596	0.547	0.728	0.709	0.605	0.464	0.481	0.543	0.504	0.991	0.926	1.02	1.08	1.21	0.997	0.843	0.746	1.05	1.2
NCI-H727	0.685	0.737	0.648	0.583	0.447	0.547	0.62	0.405	0.333	0.281	0.286	0.359	0.209	0.829	0.696	0.583	0.935	0.734
NCI-H838	0.798	0.845	0.865	0.667	1.02	1.18	1.04	1.21	0.938	0.952	0.99	1.01	0.875	0.755	0.372	0.626	0.672	0.788
NCI-H1734	0.697	0.655	0.695	0.632	0.7	0.722	0.788	0.663	0.833	0.862	0.88	0.901	0.874	0.701	0.921	0.355	0.973	0.847
LXF-289	1.11	0.966	1.11	1.06	1.12	0.963	1.02	1.03	0.994	1.03	0.951	1.01	0.928	1	0.993	0.719	1.03	0.98
H3255	0.552	0.542	0.597	0.509	0.637	0.721	0.629	0.689	0.804	0.958	0.947	0.994	0.84	0.867	0.618	0.406	0.638	0.747
201T	0.843	0.893	0.869	0.951	0.941	1.11	0.997	1.02	1.01	1.06	0.981	1.01	1.08	1.08	1.11	1.03	1.07	1.06
NCI-H2228	0.987	0.808	0.681	0.272	0.66	0.781	0.73	0.556	0.817		0.665	0.625	0.554	0.788		0.377	0.825	1.19
HOP-62	0.267	0.455	0.379	0.676	1.11	1.37	1.2	0.707	0.859	0.924	0.989	0.896	0.768	0.599	0.854	0.132	0.605	0.361
CAL-12T	0.767	0.849	0.789	0.639	1.14	1.13	1.19	1.2	0.788	0.772	0.809	0.89	0.739	1.04	0.739	0.907	0.847	0.784
NCI-H647	0.723	0.597	0.488	0.47	1.21	1.23	0.926	1.14	1.12		1.17	1.13	1.03	0.761		0.2	0.821	0.809
NCI-H1755	0.794	0.909	0.837	0.792	1.02	0.946	1.07	0.97	1.01	0.997	0.894	0.916	0.836	0.934	0.914	0.467	0.929	0.878
NCI-H2085	0.756	0.82	0.725	0.76	0.986	0.913	0.905	0.685	0.912	0.949	0.805	0.958	0.943	1.02	0.925	0.749	1.09	0.907
